Residues, ends and D or L forms follow the SMILES beside them.
Target: T1, IKKα/β heterodimer (Homo sapiens, UniProt O14920+O15111, S176E/S177E/S180E/S181E)
T1 construct: co-expression of 6×His-IKKβ(1-669) EE and Strep-IKKα(10-667) EE constructs in insect cells; Strep (followed by TEV site) (N); 6×His (followed by TEV site) (N); made in house; host or cells: Sf21 insect cells (co-infection with two baculoviruses)
T1 sequence (O15111 10-667 S176E/S180E): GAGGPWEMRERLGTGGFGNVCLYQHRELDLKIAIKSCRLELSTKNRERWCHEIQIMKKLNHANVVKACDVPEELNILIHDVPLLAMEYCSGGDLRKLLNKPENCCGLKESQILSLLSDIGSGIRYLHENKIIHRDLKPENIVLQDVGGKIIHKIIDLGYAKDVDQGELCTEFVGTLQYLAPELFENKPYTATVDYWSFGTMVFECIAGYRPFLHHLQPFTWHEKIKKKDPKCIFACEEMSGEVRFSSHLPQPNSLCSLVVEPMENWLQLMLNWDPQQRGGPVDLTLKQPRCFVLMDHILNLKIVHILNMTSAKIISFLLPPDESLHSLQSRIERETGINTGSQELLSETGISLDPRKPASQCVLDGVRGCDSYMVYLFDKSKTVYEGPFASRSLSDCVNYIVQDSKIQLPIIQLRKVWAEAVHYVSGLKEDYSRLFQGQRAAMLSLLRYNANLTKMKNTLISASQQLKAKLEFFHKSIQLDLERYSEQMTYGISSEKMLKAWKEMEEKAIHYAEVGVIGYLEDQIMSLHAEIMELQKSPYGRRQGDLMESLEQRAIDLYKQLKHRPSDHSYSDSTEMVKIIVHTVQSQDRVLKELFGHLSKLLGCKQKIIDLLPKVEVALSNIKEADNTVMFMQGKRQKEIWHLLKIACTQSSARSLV
T1 sequence (O14920 1-669 S177E/S181E): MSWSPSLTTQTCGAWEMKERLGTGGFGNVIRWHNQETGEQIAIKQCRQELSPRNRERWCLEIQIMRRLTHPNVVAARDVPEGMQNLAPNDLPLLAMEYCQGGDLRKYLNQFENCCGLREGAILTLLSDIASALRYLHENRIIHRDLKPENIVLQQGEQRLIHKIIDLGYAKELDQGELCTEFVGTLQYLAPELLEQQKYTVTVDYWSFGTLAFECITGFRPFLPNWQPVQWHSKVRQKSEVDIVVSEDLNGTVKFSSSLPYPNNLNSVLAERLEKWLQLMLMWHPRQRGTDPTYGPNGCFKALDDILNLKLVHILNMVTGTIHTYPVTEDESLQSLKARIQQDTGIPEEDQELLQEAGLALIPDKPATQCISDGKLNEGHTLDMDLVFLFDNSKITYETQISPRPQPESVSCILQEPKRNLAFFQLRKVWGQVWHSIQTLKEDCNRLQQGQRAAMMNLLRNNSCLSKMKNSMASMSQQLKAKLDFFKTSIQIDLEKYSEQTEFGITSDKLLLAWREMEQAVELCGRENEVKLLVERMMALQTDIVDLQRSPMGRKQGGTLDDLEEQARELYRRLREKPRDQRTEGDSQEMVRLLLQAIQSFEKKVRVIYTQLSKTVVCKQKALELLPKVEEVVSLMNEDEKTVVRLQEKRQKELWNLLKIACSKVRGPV
Assay: MBP-pulldown of reconstituted IKKα/β heterodimer
Format: binding
Experimental: IKKα/β heterodimer. SF21 cells expressing the Strep-IKKα(10-667) EE and 6×His-IKKβ(1-669) EE proteins were resuspended in lysis buffer (100 mM Tris-HCl pH 8.0, 150 mM NaCl, 10% glycerol, 2 mM DTT, 2 μg/ml DNaseI, 0.2 μg/ml RNAse, Roche Complete protease inhibitor cocktail) and lysed by mild sonication. Lysates were centrifuged at 14500 g for 45 minutes at 4° C. The supernatants were applied by gravity flow to Strep-Tactin XT 4F resin (IBA-lifesciences) pre-equilibrated in wash buffer (100 mM Tris-HCl pH 8, 150 mM NaCl, 10% glycerol, 1 mM EDTA, and 2 mM DTT). The resin was extensively washed with wash buffer and the proteins eluted with elution buffer (100 mM Tris-HCl pH 8, 150 mM NaCl, 10% glycerol, 2 mM DTT, and 50 mM biotin). The eluate was then applied to Ni^2+-NTA resin, which was washed and eluted as described above for the IKK homodimers. IKKα/β heterodimer samples were then concentrated and incubated in presence of 1 mM ATP plus additives (see above) for 1 hour on ice. Finally, samples were purified by gel filtration chromatography using a Superdex 200 10/30 column (GE Healthcare) pre-equilibrated in gel filtration buffer 1 (20 mM Tris-HCl PH 8.0, 150 mM NaCl, 5% Glycerol, 2 mM DTT).
Experiments were performed in PD buffer (20 mM Tris pH 8.0, 150 mM NaCl, 2 mM DTT). […] Quantification of band intensity was done using the Image J software. […]

## CC(C)C[C@H](NC(=O)[C@@H](NC(=O)[C@H](CC(C)C)NC(=O)[C@H](CCCNC(=N)N)NC(=O)[C@H](CCC(N)=O)NC(=O)CNC(=O)CNC(=O)[C@H](Cc1ccccc1)NC(=O)[C@@H](NC(=O)[C@H](CS)NC(=O)[C@H](CC(=O)O)NC(=O)[C@H](CC(=O)O)NC(=O)[C@H](Cc1ccc(O)cc1)NC(=O)[C@@H]1CCCN1C(=O)[C@H](CC(C)C)NC(=O)[C@H](CCC(=O)O)NC(=O)[C@H](CC(=O)O)NC(=O)[C@H](CCC(=O)O)NC(=O)[C@@H](NC(=O)[C@H](Cc1ccccc1)NC(=O)[C@@H](N)CCC(=O)O)[C@@H](C)O)C(C)C)[C@@H](C)O)C(=O)O [IκBα pep] (H-EFTEDELPYDDCVFGGQRLTL-OH; N-terminus and C-terminus assumed)
  binding of IKKα/β heterodimer by pulldown: efficiently binds
